One block for each compound: values may come before it. *1 amine or outer side, *2 acyl side, *3 side chain or, on linkers, in order; H or OH if unused. Where a SMILES comes first, the peptide text is derived from it. [ ]: non-standard residue; d: D form. The star is where a group is joined. X2 = O=C(O)CN(CC(=O)O)CC(=O)NC(=O)C[C@H](N[*:1])C(=O)[*:2]; X3 = O=C(O)CN(CC(=O)O)CC(C(=O)NCCS*)N(CC(=O)O)CC(=O)O; X1 = O=C(O)CN(CC(=O)O)c1cc(F)ccc1OCC(=O)*
Assays:
[1] = target: T1, MMP-9 (Homo sapiens, UniProt P14780); experiment: FRET substrate peptide cleavage assay with MMP-9; assay type: biochemical; conditions: for Regulation of MMP-9 compared with other ChePeps (in words): FRET assay, comparison of molar stoichiometries; for Regulation of MMP-9 in FRET assay (in words): ChePep:MMP-9 molar stoichiometries 0.1:1 to 0.3:1, FIGS. 2-5
T1 construct: Active MMP-9 enzyme was purchased from Calbiochem; purchased Calbiochem
Method: The second assay utilized the technique of fluorescence resonance energy transfer (FRET). The substrate peptide (Calbiochem #444221) comprised seven amino acids, coupled to a carboxyl terminal dinitrophenyl acceptor, and an amino terminal 2-aminobenzo-anthraniloyl (Abz) moiety donor. Cleavage of this substrate by MMP-9 results in the liberation of a fluorescent product (365 nm excitation, 450 nm emission). […] MMP at a concentration of 0.1 μM was mixed with varying amounts of chelating peptide (0, 0.01, 0.02, 0.04, and 0.1 μM) and incubated at 25° C. for 10 minutes to effect binding. The protein mixture was added to the peptide substrate and mixed quickly. Fluorescence intensity as a function of time was measured with a Dynex MFX fluorescence microtiter plate reader. Fluorescence intensity was related back to moles of peptide cleaved by producing a standard curve with an Abz containing non-FRET peptide. Inhibitory constants were derived from the curves and are listed below in Table 2.

[2] = target: T1, MMP-9; experiment: Enzymatic hydrolysis of fluoresceinated collagen by MMP-9 (fluorescein release assay); assay type: biochemical; conditions: MMP-9:ChePep-1 molar stoichiometries 1:0 to 1:1, FIG. 1
Method: Two enzymatic assays were performed. The first assay measured the enzymatic hydrolysis of fluoresceinated collagen by MMP-9 as a function of time. Fluoresceinated collagen (Molecular Probes, Inc.), at a concentration of 5 μM was added to reaction buffer (50 mM Tris-HCl (pH 7.6), 150 mM NaCl, 5 mM CaCl2, 0.1 mM NaN3) and was placed into a Spectrosil quartz fluorometer cuvette. MMP at a concentration of 0.1 μM was mixed with varying amounts of chelating peptide having SEQ ID No. 4 or 6 and incubated at 25° C. for 10 minutes to effect binding. The protein mixture was added to the collagen substrate and mixed quickly. Fluorescence emission intensity at 520 nm was measured as a function of time (excitation wavelength 495 nm) in a Shimadzu RF5301 fluorometer. The fluorescein release assay was used to determine the inhibitory constant (Ki) of the chelating peptide inhibitor ([I]) according to Segel (1993) via the use of Dixon plots (1/v vs. [I]), such that: slope=Km/(VmaxKi[S]) (1) where Km is the Michaelis constant, Vmax is the reaction maximum velocity, and [S] is the substrate concentration.

[3] = target: T1, MMP-9; experiment: Surface plasmon resonance (BiaCore) binding of chelating peptide to immobilized MMP-9; conditions: FIG. 6
Method: The BiaCore-X surface plasmon resonance (SPR) device was utilized to measure the interaction between the chelating peptide (CP) and MMP-9. For these experiments a carboxymethyl dextran sensor chip (BiaCore, AB; CM-5, Lofas et al., 1993) was activated with 50 mM N-hydroxysuccinimide, 0.2 M N-ethyl-N′-(dimethylaminopropyl)-carbodiimide at a flow rate of 10 μL per minute for ten minutes. MMP-9 at a concentration of 75 ng/μL was coupled to the activated surface at a flow rate of 10 μL per minute for ten minutes. The final surface was inactivated by flowing 1 M ethanolamine HCl at a rate of 10 μL per minute for five minutes over the sensor surface. CP was flowed over the sensor surface at a rate of 20 μL per minute, and at concentrations of 10, 25, and 50 nM. Binding isotherms were evaluated by simultaneously fitting the forward (ka) and reverse (kd) rate constants to the following formula: d[CP˜MMP-9]/dt=(ka[CP][MMP-9])−(kd[CP˜MMP-9]) (2) (Karlsson and Falt, 1997) where [CP], [MMP-9], and [CP˜MMP-9] are the concentrations of free chelating peptide, free MMP-9, and the complex respectively. […]

[4] = tested on: Epiderm skin model; experiment: Epiderm skin equivalent viability (MTT) assay; assay type: cell-based; conditions: 10 mM peptide in PBS, 12 hours; differences not significant
Method: The relative toxicity of the chelating and substrate peptides was assayed using the skin model Epiderm that is commercially available from MatTek Corp. The individual skin sample containers were preincubated in culture medium at 37° C. under 5% CO2 for two hours prior to the addition of the peptide constructs. The sample containers were transferred to 6 well plates that contained fresh media. All peptides were dissolved in PBS at a final concentration of 10 mM, and 100 μL of each peptide solution was pipetted onto the surface of the Epiderm sample container. Incubation was continued for 12 hours at 37° C. under 5% CO2. After the incubation period, the sample containers were washed three times with PBS and the sample containers were transferred to a 24 well plate that contained 300 μL of MTT assay media per well (MTT concentration was 1 mg/mL). The colorimetric assay was allowed to develop for three hours (incubation at 37° C. under 5% CO2). Sample containers were then transferred to a 24 well culture plate that contained 2 mL of isopropanol per well. […] Absorbance readings were taken at 570 nm and 650 nm for each sample. The percent viability of each sample relative to a PBS control was calculated as: 100×(OD570^sam−OD650^sam)/(OD570^con−OD650^con) (5) Routinely, each peptide sample was assayed in duplicate or triplicate. […]

T1 sequence (P14780 107-707 limits assumed): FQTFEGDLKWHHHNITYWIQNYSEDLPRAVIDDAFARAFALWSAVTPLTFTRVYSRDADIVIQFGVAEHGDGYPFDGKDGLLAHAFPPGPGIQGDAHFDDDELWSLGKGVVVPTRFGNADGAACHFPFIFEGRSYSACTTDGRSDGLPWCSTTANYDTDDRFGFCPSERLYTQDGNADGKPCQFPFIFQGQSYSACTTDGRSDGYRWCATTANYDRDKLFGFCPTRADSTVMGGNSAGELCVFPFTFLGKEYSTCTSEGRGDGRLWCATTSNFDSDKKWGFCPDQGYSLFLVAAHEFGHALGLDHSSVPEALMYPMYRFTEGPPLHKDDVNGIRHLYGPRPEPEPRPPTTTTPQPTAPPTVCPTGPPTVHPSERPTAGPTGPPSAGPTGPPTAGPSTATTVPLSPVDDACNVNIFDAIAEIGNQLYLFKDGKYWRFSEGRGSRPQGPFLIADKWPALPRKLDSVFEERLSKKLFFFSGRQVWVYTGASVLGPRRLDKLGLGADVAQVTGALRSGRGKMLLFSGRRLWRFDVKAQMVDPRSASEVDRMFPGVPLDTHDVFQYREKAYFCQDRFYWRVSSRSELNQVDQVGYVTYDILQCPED

Compound: CC[C@H](C)[C@H](N)C(=O)N[C@@H](Cc1ccc(O)cc1)C(=O)N[C@H](C(=O)N[C@@H](C)C(=O)N[C@@H](CC(=O)NC(=O)CN(CC(=O)O)CC(=O)O)C(=O)N[C@@H](CCSC)C(=O)N[C@@H](CO)C(=O)N[C@@H](C)C(=O)N[C@H](C(N)=O)C(C)C)[C@@H](C)O [ChePep-4] (H-IYTA[X2]MSAV-NH2; N-terminus and C-terminus assumed)
Regulation of MMP-9 compared with other ChePeps (in words) [1]: nearly identical ability to regulate MMP-9

Compound: CC(C)[C@H](NC(=O)[C@@H]1CCCN1C(=O)[C@@H](NC(=O)[C@H](C)NC(=O)[C@H](CO)NC(=O)[C@@H](N)CSSCCNC(=O)C(CN(CC(=O)O)CC(=O)O)N(CC(=O)O)CC(=O)O)C(C)C)C(=O)N[C@@H](Cc1c[nH]cn1)C(=O)O (some centres unmarked) [ChePep-1] (H-C(X3)SAVPVH-OH)
Regulation of MMP-9 hydrolysis of fluoresceinated collagen (in words) [2]: prevents the enzyme from degrading fluoresceinated collagen in a dose dependent manner

Regulation of MMP-9 compared with other ChePeps (in words) [1]: most potent regulator of all the ChePeps | SPR association / affinity for immobilized MMP-9 (in words) ([3]; 400 second association phase, 20 μL per minute): binds quickly and with high affinity | SPR dissociation from immobilized MMP-9 (in words) ([3]; 800 second dissociation phase): does not dissociate
Compound: CC(C)C(NC(=O)C(CS)NC(=O)C(NC(=O)C(CS)NC(=O)COc1ccc(F)cc1N(CC(=O)O)CC(=O)O)C(C)O)C(=O)N1CCCC1C(=O)O (centres unmarked) [ChePep-6] (X1-CTCVP-OH; configuration not given here)
Regulation of MMP-9 in FRET assay (in words) [1]: effective MMP-9 regulator at low molar stoichiometries

Regulation of MMP-9 in FRET assay (in words) [1]: dose dependent manner
Compound: CC(C)[C@H](NC(=O)[C@@H]1CCCN1C(=O)[C@@H](NC(=O)[C@H](C)NC(=O)[C@H](CO)NC(=O)[C@@H](N)CC(=O)NC(=O)CN(CC(=O)O)CC(=O)O)C(C)C)C(=O)N[C@@H](Cc1c[nH]cn1)C(N)=O [ChePep-2] (H-[X2]SAVPVH-NH2)
Regulation of MMP-9 compared with other ChePeps (in words) [1]: significantly more effective in regulating MMP-9 than was ChepPep-1

Compound: CC[C@H](C)[C@H](N)C(=O)N[C@@H](Cc1ccc(O)cc1)C(=O)N[C@H](C(=O)N[C@@H](C)C(=O)N[C@@H](CSSCCNC(=O)C(CN(CC(=O)O)CC(=O)O)N(CC(=O)O)CC(=O)O)C(=O)N[C@@H](CCSC)C(=O)N[C@@H](CO)C(=O)N[C@@H](C)C(=O)N[C@H](C(N)=O)C(C)C)[C@@H](C)O (some centres unmarked) [ChePep-3] (H-IYTAC(X3)MSAV-NH2; N-terminus assumed)
Regulation of MMP-9 compared with other ChePeps (in words) [1]: nearly identical ability to regulate MMP-9

Compound: pyridine disulfide ethylenediaminetetraacetic acid [PSDE]
Percent viability relative to PBS control, by zinc chelator of the construct [4]: 96.5%

Compound: 2-amino-4-fluorophenol N,N,O triacetic acid [AFTA]
Percent viability relative to PBS control, by zinc chelator of the construct [4]: 90.5%

Source: patent publication US7041787B2, “Design and use of advanced zinc chelating peptides to regulate matrix metalloproteinases” (Kimberly-Clark Worldwide, Inc., priority 2000, dated 2006)
